Experimental data taken from patent publication US20190241569A1, “3-(ARYL OR HETEROARYL) METHYLENEINDOLIN-2-ONE DERIVATIVES AS INHIBITORS OF CANCER STEM CELL PATHWAY KINASES FOR THE TREATMENT OF CANCER” (Boston Biomedical, Inc., priority 2013, published 2019).
Where two headings read alike, the source gives them in different places.

How the values were obtained:
Type in all cases: cell-based
A549 CSC = test: Cancer stem cells, Cell Titer-Glo 72 hours (Test Example 3); settings: Homo sapiens
ACHN = test: Bulk cancer cells, Cell Titer-Glo 72 hours (Test Example 2)
Description: (§1) Tubes of 3× drug (60 uM in 500 uL complete media) were prepared from 5 mM stock solutions in DMSO. […] To treat cells, 50 uL of drug from the dilution plate was removed and added to the cell plates. […] Cells were harvested 72 hours after drug addition using Cell Titer-Glo (Promega) and luminescence measured on a plate reader.

ACHN CSC = test: Cancer stem cells, Cell Titer-Glo 72 hours (Test Example 3)
FaDu = test: Bulk cancer cells, Cell Titer-Glo 72 hours (Test Example 2); settings: Homo sapiens
Description: as §1

FaDu CSC = test: Cancer stem cells, Cell Titer-Glo 72 hours (Test Example 3)
A549 = test: Bulk cancer cells, Cell Titer-Glo 72 hours (Test Example 2); settings: Homo sapiens
Description: as §1

Row | IC50 (A549 CSC) [µM] | IC50 (ACHN) [µM] | IC50 (ACHN CSC) [µM] | IC50 (FaDu) [µM] | IC50 (ACHN CSC; Homo sapiens, ACHN, 72 h) [µM] | IC50 (FaDu CSC; Homo sapiens, FaDu, 72 h) [µM] | IC50 (ACHN; Homo sapiens, ACHN, 72 h) [µM] | IC50 (A549) [µM] | IC50 (FaDu CSC) [µM] | SMILES
1 | 25.4 | 22.4 | 3.42 | – | – | – | – | – | – | Cc1ccc(-c2ccc3c(c2)/C(=C/c2[nH]c(C)cc2C)C(=O)N3)cn1 [Example 228]
2 | – | – | – | 37.3 | 0.05 | – | – | – | – | Cc1ccc(-c2ccc3c(c2)/C(=C/c2[nH]c(C)cc2C)C(=O)N3)nc1 [Example 216]
3 | 17.2 | – | – | 4.63 | 3.44 | 17.6 | 4.65 | 5.86 | – | CCN(CC)CCNC(=O)c1c(C)[nH]c(/C=C2\C(=O)Nc3ccc(-c4cnc5ccccn45)cc32)c1C [Example 192]
4 | 3.38 | – | – | 3.05 | 1.16 | 0.22 | 2.92 | 6.51 | – | CCN(CC)CCNC(=O)c1c(C)[nH]c(/C=C2\C(=O)Nc3ccc(-c4ccc(C)cn4)cc32)c1C [Example 184]
5 | 12.2 | – | – | 4.22 | 0.14 | 0.31 | 2.32 | 5.99 | – | Cc1ccc(-c2nc(-c3ccc4c(c3)/C(=C/c3[nH]c(C)c(C(=O)NCCN5CCCC5)c3C)C(=O)N4)cs2)cc1 [Example 103]
6 | 42.3 | – | – | 2.66 | 5.59 | 0.04 | 5.73 | 8.13 | – | CCN(CC)CCNC(=O)c1c(C)[nH]c(/C=C2\C(=O)Nc3ccc(-c4cnc5ccccc5n4)cc32)c1C [Example 185]
7 | 22.1 | – | – | 21.1 | 2.68 | 12 | 18.8 | 9.39 | – | O=C1Nc2ccc(-c3csc(C4CCNCC4)n3)cc2/C1=C/c1cc2c([nH]1)CCCC2 [Example 157]
8 | 9.85 | – | – | 6.81 | 2.14 | 16.2 | 11.6 | 7.07 | – | CCN(CC)CCNC(=O)c1c(C)[nH]c(/C=C2\C(=O)Nc3ccc(-c4ccncc4)cc32)c1C [Example 208]
9 | 7.55 | – | – | 2.14 | 2.17 | 1.54 | 2.53 | 2.76 | – | CCN(CC)CCNC(=O)c1c(C)[nH]c(/C=C2\C(=O)Nc3cc(-c4ccc(O)cc4C)ccc32)c1C [Example 265]
10 | 2.04 | – | – | 5.16 | 0.1 | 0.76 | 4.12 | 5.55 | – | O=C1Nc2ccc(-c3csc(C4CCNCC4)n3)cc2/C1=C/c1cc2ccccc2[nH]1 [Example 168]
11 | 29.2 | – | – | 25.4 | 20.8 | 15.5 | 18.9 | 19.7 | – | CCN(CC)CCNC(=O)c1c(C)[nH]c(/C=C2\C(=O)Nc3ccc(-c4ccc5c(c4)CC(=O)N5)cc32)c1C [Example 270]
12 | 35.7 | – | – | 28 | 1.24 | 4.57 | 7.42 | 10.1 | – | CCN(CC)CCNC(=O)CCc1c(C)[nH]c(/C=C2\C(=O)Nc3ccc(-c4csc(-c5ccncc5)n4)cc32)c1C [Example 167]
13 | 40 | – | – | 13.4 | – | 13.1 | 13.2 | 11.1 | – | Cc1cc(C)c(/C=C2\C(=O)Nc3ccc(-c4cccc5ncccc45)cc32)[nH]1 [Example 259]
14 | 4.49 | – | – | 3.62 | – | 0.31 | 3.4 | 6.91 | – | Cc1[nH]c(/C=C2\C(=O)Nc3ccc(-c4cnn(-c5ccccc5)c4)cc32)c(C)c1C(=O)N1CCN(C)CC1 [Example 6]
15 | 1.42 | – | – | 20.2 | 2.52 | 4.09 | 34.6 | – | – | O=C1Nc2ccc(-c3csc(-c4ccccc4)n3)cc2/C1=C/c1cc2c([nH]1)CCCC2 [Example 155]
16 | – | – | – | – | 6.8 | – | – | – | – | Cc1cc(C)c(/C=C2\C(=O)Nc3ccc(-c4cnc(-c5ccccc5)cn4)cc32)[nH]1 [Example 233]
17 | 4.93 | – | – | 19.8 | 2.88 | 1.18 | – | – | – | CCN(CC)CCNC(=O)c1c(C)[nH]c(/C=C2\C(=O)Nc3cc(-c4ccc(-c5ccccc5)cn4)ccc32)c1C [Example 256]
18 | – | – | – | 7.09 | 30.9 | 28.4 | 12 | 11.6 | – | CCN(CC)CCNC(=O)c1c(C)[nH]c(/C=C2\C(=O)Nc3ccc(-c4n[nH]c5c(N)cccc45)cc32)c1C [Example 268]
19 | – | – | – | 8.67 | 11.9 | – | – | 7.06 | – | CCN(CC)CCN1CCCc2[nH]c(/C=C3\C(=O)Nc4ccc(-c5csc(C6CCNCC6)n5)cc43)c(C)c2C1=O [Example 178]
20 | – | – | – | – | 18.3 | – | 0.16 | 35.8 | – | CSc1cnc(-c2ccc3c(c2)/C(=C/c2[nH]c(C)cc2C)C(=O)N3)cn1 [Example 221]
21 | – | – | 0.01 | – | – | – | – | – | 47.4 | Cc1cc(C)c(/C=C2\C(=O)Nc3ccc(-c4ncccc4C)cc32)[nH]1 [Example 225]

Row | IC50 (A549 CSC) [µM] | IC50 (ACHN) [µM] | IC50 (ACHN CSC) [µM] | IC50 (FaDu) [µM] | IC50 (ACHN CSC; Homo sapiens, ACHN, 72 h) [µM] | IC50 (FaDu CSC; Homo sapiens, FaDu, 72 h) [µM] | IC50 (ACHN; Homo sapiens, ACHN, 72 h) [µM] | IC50 (A549) [µM] | IC50 (FaDu CSC) [µM] | SMILES
22 | 23.7 | – | – | – | 4.55 | 3.61 | 22 | – | – | Cc1ccc(-c2ccc3c(c2)NC(=O)/C3=C\c2[nH]c(C)cc2C)cn1 [Example 244]
23 | – | – | 0.01 | – | – | – | 24.9 | 25.8 | – | Cc1ccc(-c2ccc3c(c2)/C(=C/c2[nH]c(C)cc2C)C(=O)N3)cn1 [Example 213]
24 | – | – | – | 9.12 | 1.91 | 24.4 | 6.51 | 7.14 | – | CCN(CC)CCNC(=O)c1c(C)[nH]c(/C=C2\C(=O)Nc3cc(-c4nccc5ccccc45)ccc32)c1C [Example 255]
25 | 14.1 | – | – | – | 1.28 | 14.1 | 7.74 | 7.79 | – | CCN(CC)CCNC(=O)c1c(C)[nH]c(/C=C2\C(=O)Nc3ccc(-c4csc(C(=O)O)c4)cc32)c1C [Example 202]
26 | 43.6 | – | – | 17.5 | – | 39.1 | 25.8 | 16.9 | – | CCN(CC)CCNC(=O)c1c(C)[nH]c(/C=C2\C(=O)Nc3ccc(-c4cnc(-c5ccccc5)cn4)cc32)c1C [Example 199]
27 | 3.59 | – | – | – | 0.21 | 1.12 | – | 14.8 | – | CCN(CC)CCNC(=O)c1c(C)[nH]c(/C=C2\C(=O)Nc3cc(-c4ccc(-c5ccccc5)nc4)ccc32)c1C [Example 249]
28 | 3.73 | – | – | 1.8 | 0.19 | 0.6 | – | – | – | CCN(CC)CCNC(=O)c1c(C)[nH]c(/C=C2\C(=O)Nc3cc(-c4csc(-c5ccccc5)n4)ccc32)c1C [Example 7]
29 | 2.6 | – | – | 3.42 | 9.21 | – | 0.29 | 14.8 | – | O=C1Nc2ccc(-c3csc(-c4ccncc4)n3)cc2/C1=C/c1ncc[nH]1 [Example 153]
30 | 1.51 | – | – | 0.92 | 0.33 | – | 2.74 | 1.8 | – | CCN(CC)CCNC(=O)c1c(C)[nH]c(/C=C2\C(=O)Nc3ccc(-c4ccc5ccccc5n4)cc32)c1C [Example 186]
31 | – | – | – | 26.7 | 17.1 | 43.4 | 42.8 | – | – | Cc1cc(C)c(/C=C2\C(=O)Nc3ccc(-c4cnsc4)cc32)[nH]1 [Example 220]
32 | 6.59 | – | – | 16.6 | 1.36 | 5.15 | – | 16.4 | – | CCN(CC)CCNC(=O)c1c(C)[nH]c(/C=C2\C(=O)Nc3cc(-c4ccc5ccccc5n4)ccc32)c1C [Example 253]
33 | – | – | – | – | 0.02 | – | – | – | – | Cc1cc(C)c(/C=C2\C(=O)Nc3ccc(-c4ccccn4)cc32)[nH]1 [Example 226]
34 | 5.83 | – | – | – | 2.54 | 8.8 | – | 18.2 | – | Cc1cc(C)c(/C=C2\C(=O)Nc3cc(-c4cnc5ccccc5n4)ccc32)[nH]1 [Example 242]
35 | 0.9 | – | – | 6.14 | – | 6.32 | 8.74 | 11.2 | – | O=C1Nc2ccc(-c3csc(-c4ccccc4)n3)cc2/C1=C/c1cnc[nH]1 [Example 151]
36 | 0.45 | – | – | 7.87 | – | 1.98 | 4.25 | 8.55 | – | Cc1ccc(-c2nc(-c3ccc4c(c3)/C(=C/c3[nH]c(C)c(C(=O)N5CCN(C)CC5)c3C)C(=O)N4)cs2)cc1 [Example 104]
37 | 10.5 | – | – | – | 0.69 | 3.4 | – | – | – | CCN(CC)CCNC(=O)c1c(C)[nH]c(/C=C2\C(=O)Nc3ccc(-c4csc(-c5ccc(C)cc5)n4)cc32)c1C [Example 102]
38 | – | – | – | 5.48 | 5.05 | 6.56 | 12.6 | 2.86 | – | Cc1[nH]c(/C=C2\C(=O)Nc3ccc(-c4csc(-c5ccccc5)n4)cc32)c(C)c1S(=O)(=O)N1CCCC1 [Example 146]
39 | – | – | – | – | 1.6 | 2.91 | 0.83 | – | – | CCOC(=O)c1[nH]c(/C=C2\C(=O)Nc3ccc(-c4csc(-c5ccccc5)n4)cc32)c2c1CCCC2 [Example 164]
40 | – | – | – | – | 6.95 | – | – | – | – | Cc1cc(C)c(/C=C2\C(=O)Nc3ccc(-c4ccncc4)cc32)[nH]1 [Example 238]
41 | – | – | – | – | 0.01 | 41.1 | 7.95 | 22.4 | – | Cc1cc(C)c(/C=C2\C(=O)Nc3ccc(-c4ncccc4C)cc32)[nH]1 [Example 211]
42 | 11.6 | – | – | 12.9 | 1.07 | 2.83 | – | 15.8 | – | CCN(CC)CCNC(=O)c1c(C)[nH]c(/C=C2\C(=O)Nc3cc(-c4cnc5ccccc5c4)ccc32)c1C [Example 257]

Row | SMILES | IC50 (A549 CSC) [µM] | IC50 (ACHN) [µM] | IC50 (ACHN CSC) [µM] | IC50 (FaDu) [µM] | IC50 (ACHN CSC; Homo sapiens, ACHN, 72 h) [µM] | IC50 (FaDu CSC; Homo sapiens, FaDu, 72 h) [µM] | IC50 (ACHN; Homo sapiens, ACHN, 72 h) [µM] | IC50 (A549) [µM] | IC50 (FaDu CSC) [µM]
43 | O=C1Nc2ccc(-c3csc(-c4ccccc4)n3)cc2/C1=C/c1[nH]cc2ccccc12 [Example 162] | – | – | – | – | 4.08 | 5.04 | – | – | –
